Legend:
[1] = target: T1, TF (243 form lipidated or 219 form unlipidated) (Homo sapiens, UniProt P13726); experiment: Isothermal calorimetry analysis of binding to TF
T1 construct: made in house; host or cells: E. coli (stated for the 243-aa form)

[2] = target: T2, human recombinant TF/VIIa complex (lipidated) (Homo sapiens, UniProt P13726); experiment: TF/VIIa-dependent FX activation assay; format: biochemical; settings: statement on FIG. 3
T2 construct: Truncated recombinant human tissue factor (e.g. composed of 243 amino acids) is expressed in E. coli; host or cells: E. coli (TF)
T2 sequence (P13726 33-275 limits assumed): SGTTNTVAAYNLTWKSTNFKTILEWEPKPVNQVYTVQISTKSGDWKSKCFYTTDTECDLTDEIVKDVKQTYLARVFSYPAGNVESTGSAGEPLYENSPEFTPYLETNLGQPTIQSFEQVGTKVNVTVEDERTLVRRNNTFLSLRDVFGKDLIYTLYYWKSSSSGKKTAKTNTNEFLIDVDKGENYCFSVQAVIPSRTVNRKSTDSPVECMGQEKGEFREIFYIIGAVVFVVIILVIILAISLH
T2 sequence (P08709 61-212 partner limits assumed): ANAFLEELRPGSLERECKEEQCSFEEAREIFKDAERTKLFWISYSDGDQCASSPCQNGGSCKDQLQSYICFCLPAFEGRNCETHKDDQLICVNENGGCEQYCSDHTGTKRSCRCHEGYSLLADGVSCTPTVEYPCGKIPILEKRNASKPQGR
T2 sequence (P08709 213-466 partner limits assumed): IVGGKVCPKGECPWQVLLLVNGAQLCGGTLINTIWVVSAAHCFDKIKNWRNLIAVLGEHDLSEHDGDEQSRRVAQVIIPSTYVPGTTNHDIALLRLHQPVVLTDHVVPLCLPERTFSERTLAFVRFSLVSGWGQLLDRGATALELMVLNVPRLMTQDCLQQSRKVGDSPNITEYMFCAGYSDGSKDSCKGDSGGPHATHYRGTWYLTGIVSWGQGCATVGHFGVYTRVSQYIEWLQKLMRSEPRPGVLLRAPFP
Procedure: A more particular example of the primary screening assay discussed previously is as follows. The assay is standard for measuring TF/VIIa-dependent factor X activation. […] In a more preferred embodiment, the primary screening preferably includes the following steps. • 1) admixing in a suitable assay solution about 0.1 nM of human recombinant TF/VIIa complex (lipidated), about 180 nM human FX, and between from about 0.5 μl to about 10 μl of at least one compound to be tested (optionally dissolved in an appropriate vehicle such as water or dimethylsulfoxide (DMSO)) and incubating the reaction at 37° C. for a few minutes up to about an hour or more, • 2) contacting the solution with a suitable chelating agent such as ethylenediaminietetra acetic acid (EDTA) to reduce or stop factor X activation, • 3) contacting the solution with a detectable amount of a chromogenic substrate specific for FXa (e.g., Spectrozyme FXa or S-2765) and incubating same at 37° C.; and • 4) detecting chromophore produced in the solution as being indicative of the factor X activation.
The primary screening for compounds that inhibit tissue factor/factor VIIa (TF/VIIa) is based on TF/VIIa-dependent FX activation assay (See flow chart in FIG. 1 of the drawings). In this assay, the ability of TF/VIIa complex to activate FX is determined in two discontinuous stages. […] In the second stage (FXa activity assay), EDTA is added at indicated times to the FX activation mixture to chelate calcium, thus leading to the termination of FX→FXa conversion. Calcium is required for TF/VIIa activity. The activity of FXa is then measured by FXa-specific chromogenic substrates such as S-2222, S-2765, or Spectrozyme FXa. In the primary screening, compounds from a previously prepared chemical library are first tested at relatively high concentrations (˜0.833 mM) in TF/VIIa-dependent FX activation assay to identify hits of potential TF pathway antagonists (see FIG. 1). However, it is evident that the inhibition of TF/VIIa-dependent FX activation by a compound in this enzyme-coupled assay can be attributed to effects of the compound on TF/VIIa and/or FXa activities. Thus, secondary screening tests are designed to determine how inhibition takes place and the inhibition mechanism. In secondary screening experiments, effects of those compounds identified from primary screening are tested on catalytic activities of factor VIIa (FVIIa), factor IXa (FIXa), factor Xa (FXa), thrombin, Russell's viper venom (RVV), and trypsin.
Primary screening was done in duplicate in 96-well plates using the TF/VIIa-dependent FX activation assay. All compounds to be screened were dissolved in dimethyl sulfoxide (DMSO), other reagents were prepared or diluted in 25 mM HEPES-NaOH, 5 mM CaCl2, 150 mM NaCl, 0.1% BSA, pH 7.5. For assays where TF was used, purified human recombinant TF (100 nM) was first lipidated with phosphatidylcholine (0.07 mg/ml) and phosphatidylserine (0.03 mg/ml) in 50 mM Tris-HCl, pH 7.5, 0.1% bovine serum albumin (BSA) for 30 minutes at 37° C. A stock solution of TF/VIIa complex was then prepared by combining equal volumes of 100 nM lipidated TF and 100 nM FVIIa The complex was incubated at 37° C. for 30 minutes and then was aliquoted and stored at −70° C. for future uses.
For screening assays, 5 μl of each compound (about 10 mM in DMSO) or DMSO were placed in each well of a 96-well plate, followed by adding 45 μl of TF/VIIa complex (0.1 nM). The components in each well were mixed either with pipette tips or by shaking the plate on a Lab-Line titer plate shaker for 30 seconds. After 15 minutes incubation of the plate at a 37° C., 10 μl of human FX (180 nM) was added to each well and mixed as above. The plate was then incubated at 37° C. for 3 to 15 minutes, followed by addition of 10 μl of EDTA (400 mM in 144 mM HEPES, 864 mM NaCl, 0.576% BSA, pH adjusted to 7.5) to each well to terminate FX activation. […]

TF/VIIa complex = target: T3, TF/VIIa complex (Homo sapiens, UniProt P13726); experiment: TF/VIIa-dependent FIX activation assay; format: biochemical; settings: statement on FIG. 3
T3 construct: Truncated recombinant human tissue factor (e.g. composed of 243 amino acids) is expressed in E. coli; host or cells: E. coli (TF)
T3 sequence (P13726 33-275 limits assumed): as the sequence (P13726 33-275 limits assumed) above
T3 sequence (P08709 61-212 partner limits assumed): as the sequence (P08709 61-212 partner limits assumed) above
T3 sequence (P08709 213-466 partner limits assumed): as the sequence (P08709 213-466 partner limits assumed) above
Procedure: In a more particular embodiment, the standard assay preferably includes the following steps: • 1) admixing in a suitable assay solution about 0.7 nM TF/VIIa complex with 300 nM factor IX and 1000 nM factor X, and from between about 0.5 μl to about 10 μl of at least one compound to be tested (optionally dissolved in an appropriate vehicle such as water or dimethylsulfoxide (DMSO)) and incubating the solution at 37° C. from between about a few minutes up to about an hour under conditions suitable for forming FIXa and FXa; • 2) contacting the solution with a suitable chelating agent such as EDTA to stop FIX activation; • 3) contacting the solution with a chromogenic substrate specific for the FXa (e.g., Spectrozyme FXa) and incubating same at 37° C.; and • 4) detecting chromophore in the solution as being indicative of the factor IX activation.
TF/VIIa is not only able to activate FX, but is also able to convert FIX to FIXa. To examine whether the two antagonists 1 and 2 were able to block FIX activation catalyzed by TF/VIIa. FIX activation experiment was conducted. To each well of a 96-well plate, 5 μl of diluted DMSO or compound was added, followed by 45 μl of TF/VIIa (0.67 nM). After mixing and incubating for 15 minutes at 37° C., 10 μl of FIX (300 nM) was added and incubated for 10 minutes at 37° C. 10 μl of EDTA ([…] in 144 mM HEPES, […], 0.576% BSA, pH adjusted to 7.5) was added, followed by addition of 10 μl of FX (1000 nM), 10 μl of polylysine, and 10 μl of Spectrozyme FXa (6 mM). After 3 hour incubation at 37° C., absorbance at 405 nm was measured following addition of 20 μl of 50% acetic acid. The percent inhibition of TF/VIIa-dependent FIX activation was calculated from OD405 nm values in the absence and presence of a compound.

T1 sequence (P13726 33-251): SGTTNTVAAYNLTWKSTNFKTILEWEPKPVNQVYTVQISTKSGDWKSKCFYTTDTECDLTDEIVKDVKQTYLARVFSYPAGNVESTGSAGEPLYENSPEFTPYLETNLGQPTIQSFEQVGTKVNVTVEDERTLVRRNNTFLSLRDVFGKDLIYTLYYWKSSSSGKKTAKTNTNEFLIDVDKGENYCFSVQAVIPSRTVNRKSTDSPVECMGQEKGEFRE

Molecule | binding to TF [1] | blocking activity in standard assay for TF/VIIa-dependent factor X activation [2] | blocking activity in standard assay for TF/VIIa-dependent factor IX activation (TF/VIIa complex)
1-(bisphosponate)-2-amino(3-hydroxyphenyl)ethyl [Compound 1] | directly observed |  | 
Nc1ccc(NCC(P(=O)(O)O)P(=O)(O)O)cc1 [Compound 3] |  | good blocking activity | good blocking activity
Cc1ccc(NCC(P(=O)(O)O)P(=O)(O)O)cc1 [Compound 4] |  | good blocking activity | good blocking activity
O=P(O)(O)C(COc1ccccc1)P(=O)(O)O [Compound 6] |  | good blocking activity | good blocking activity
NCCCC(O)(P(=O)(O)O)P(=O)(O)O [Fosamax, reference compound] |  | good blocking activity | good blocking activity

From patent US7199113B2, “Pharmaceutically active compounds and methods of use thereof” (priority 1998, dated 2007)
